In ChEMBL document CHEMBL3785085, “Pharmacokinetics of single and multiple doses of phenytoin in man” (Eur J Clin Pharmacol, 1974):

Legend:
[1] = Apparent volume of distribution (area) in healthy human volunteer (5 volunteers) at 5 mg/kg, iv administered as single dose through infusion by gas chromatographic method; format: ADME, organism-based; settings: in vivo, read-out: Vd(app)
[2] = Half life in healthy human volunteer (5 volunteers) at 5 mg/kg, iv administered as single dose through infusion by gas chromatographic method; format: ADME, organism-based; settings: in vivo
[3] = Half life in healthy human volunteer (5 volunteers) at 5 mg/kg, po administered as single dose by gas chromatographic method; format: ADME, organism-based; settings: in vivo
[4] = Half life at post steady state in healthy human volunteer (5 volunteers) at 2 mg/kg, po bid administered for 12 days by gas chromatographic method; format: ADME, organism-based; settings: in vivo
[5] = Half life during steady state in healthy human volunteer (5 volunteers) at 2 mg/kg, po bid administered for 12 days by gas chromatographic method; format: ADME, organism-based; settings: in vivo
[6] = Total plasma clearance in healthy human volunteer (5 volunteers) at 5 mg/kg, iv administered as single dose by gas chromatographic method; format: ADME, organism-based
[7] = tested on: Plasma; assay: Plasma concentration at steady state in healthy human volunteer (5 volunteers) at 2 mg/kg, po bid administered for 12 days by gas chromatographic method; format: ADME, organism-based; settings: in vivo, 288 h
[8] = Drug uptake in healthy human volunteer (5 volunteers) at 5 mg/kg, iv administered as single dose through infusion after 0.5 hrs by gas chromatographic method; format: ADME, organism-based; settings: in vivo, read-out: Drug uptake
[9] = Cmax in healthy human volunteer (5 volunteers) at 5 mg/kg, po administered as single dose by gas chromatographic method; format: ADME, organism-based; design: dose 5 mg/kg, route oral; settings: in vivo
[10] = tested on: Homo sapiens; assay: Anticonvulsant activity in po dose patient assessed as compound level in plasma required to decrease epileptic seizure; format: functional

- Vd [1]: 0.52 L/kg
- half-life [2]: 14.5 h
- half-life [3]: 16.6 h
- half-life [4]: 15.9 h
- half-life [5]: 21.3 h
- clearance [6]: 0.367 mL/min/kg
- Cpss [7]: 5.3 µg/mL
- concentration at 0.5 h [8]: 8400 ng/mL
- Cmax [9]: 2600 ng/mL
SMILES: O=C1N=C([O-])NC1(c1ccccc1)c1ccccc1.[Na+] [PHENYTOIN SODIUM]
- MEC [10]: 10 µg/mL
